Several values for one entry are separate records, joined by “and”; a condition that tells them apart may be missing. Equal entries are not always repeated.
Experiment: Pharmacokinetic parameters of GP1707D07 (HPLC-MS/MS, non-compartmental) in the GP681-itraconazole drug-drug interaction study
Format: in vivo, healthy Chinese subjects
Settings: for Cmax / MRT0-t / MRT0-∞ / Tmax / Vz/F / t1/2 / λz / AUC0-t / AUC0-∞ / AUC_%Extrap / CL/F: Period 2, GP681 20 mg + itraconazole
Method: This single-center, open-label, self-controlled, fixed-sequence study, sponsored by Qingfeng Pharmaceutical Group Co., Ltd., was conducted at a single clinical research site in the China–Japan Friendship Hospital (Beijing, China). Each subject received the following treatment: Suraxavir Marboxil (GP681) 20 mg in the fasted state on day 1 and day 26. Itraconazole capsules (Sporanox®: Xi’an Yangsen Pharmaceutical Co., Ltd., China) 0.2 g twice daily (BID, bis in die) on day 22. Itraconazole 0.2 g daily from day 23 to day 36 [including day 26, when itraconazole was co-administrated with Suraxavir Marboxil (GP681)]. The washout period is 21 days (Figure 2). It should be noted that in the following sections, when discussing the PK profile, this study was divided into Period 1 (Suraxavir Marboxil (GP681) monotherapy, from day −1 to day 12), and Period 2 (Suraxavir Marboxil (GP681)-itraconazole co-administration, from day 21 to day 36). When discussion the safety profile, this study was divided into Stage 1 (Suraxavir Marboxil (GP681) monotherapy stage, from day 1 to day 21), Stage 2 (itraconazole monotherapy stage, from day 22 to day 25), and Stage 3 (Suraxavir Marboxil (GP681)-itraconazole co-administration stage, from d 26 to d 36).
Blood samples were collected at the following time points: pre–dose, 0.5, 1, 2, 3, 4, 5, 6, 8, 12, 24, 36, 48, 72, 120, 168, and 264 h post-dose on day 1 and day 26. In addition, a blood sample were collected before dosing on day 1 for genetic polymorphism assessment.
A validated high-performance liquid chromatography-tandem mass spectrometry (HPLC-MS/MS) method was used to determine plasma concentrations of Suraxavir Marboxil (GP681) and its active metabolite GP1707D07 at different times, with the quantification range of 0.3/0.3–300/300 ng/mL for Suraxavir Marboxil (GP681) and GP1707D07. The lower limit of quantification (LLOQ) for both compounds was 0.300 ng/mL. Phoenix® WinNonlin® 8.3 was used to estimate and analyze the pharmacokinetic parameters of non-compartmental model from plasma concentration data. Pharmacokinetic parameters included: maximum plasma concentration (Cmax), area under the plasma concentration-time curve extrapolated from time zero to infinity (AUC0- ∞ ), time to Cmax (Tmax), half-life (t1/2), λz, AUC_%Extrap, Vz/F, CL/F, and mean residence time (MRT).
Statistical analysis was performed using SAS (version 9.4 or above) software programming. Pharmacokinetic concentration analysis was based on Pharmacokinetic Analysis Concentration Set (PKCS). Individual and mean concentrations (mean ± SD) were plotted against planned blood sampling time points for the analyte on linear and semi-log scales. Pharmacokinetic parameter analysis was based on Pharmacokinetic Analysis Parameter Set (PKPS). Drug interaction analysis was based on Drug Interaction Set (DIS). The geometric mean ratios and their 90% confidence intervals of pharmacokinetic parameters Cmax, AUC0-t, and AUC0- ∞ under Suraxavir Marboxil (GP681) single dose and Suraxavir Marboxil (GP681)-itraconazole co-administration conditions were calculated after natural logarithm transformation, using a linear mixed effects model with subjects as random effects and treatment (combined/single) as fixed effects.
1.3 Pharmacokinetic Sample Collection and Processing: Pharmacokinetic Analysis: Approximately 4 mL of blood is collected each time into a tube containing sodium fluoride/potassium oxalate as an anticoagulant. The tube is then placed upright in an ice-water bath. The plasma samples are separated by centrifugation for the detection of GP681/GP1707D07 blood drug concentrations. Both sample collection and processing are conducted under white light conditions. […]

[1] = mean (SD), N = 4 (8 subjects with %AUCextrap >20% not included)

O=C1c2c(O)c(=O)ccn2N([C@@H]2c3ccccc3SCc3c2ccc(F)c3F)[C@@H]2COC3(CC3)CN12 [GP1707D07]
Cmax (geometric mean, N=12): 22.0 ng/mL and 22.0359 ng/mL
MRT0-t (geometric mean, N=12): 91.828 h
MRT0-∞ (geometric mean, N=12): 170.5 h and 170.494 h
Tmax (geometric mean, N=12): 4.4 h
Vz/F (geometric mean, N=12): 1365.672 L
t1/2 (geometric mean, N=12): 125.561 h
λz (geometric mean, N=12): 0.0055 h⁻¹
AUC0-t (individual subjects): 2991.14 ng·h/mL and 2032.39 ng·h/mL and 1353.85 ng·h/mL and 2127.20 ng·h/mL and 1044.79 ng·h/mL and 2764.96 ng·h/mL and 1661.62 ng·h/mL and 2484.54 ng·h/mL and 2488.27 ng·h/mL and 2757.79 ng·h/mL and 1586.83 ng·h/mL and 2524.54 ng·h/mL and 2991.1 ng·h/mL and 2032.4 ng·h/mL and 1353.9 ng·h/mL and 1044.8 ng·h/mL and 2765.0 ng·h/mL and 1661.6 ng·h/mL and 2484.5 ng·h/mL and 2488.3 ng·h/mL and 2757.8 ng·h/mL and 1586.8 ng·h/mL and 2524.5 ng·h/mL
AUC0-∞ (individual subjects): 4071.31 ng·h/mL and 2952.73 ng·h/mL and 1815.81 ng·h/mL and 2809.94 ng·h/mL and 1322.58 ng·h/mL and 3386.84 ng·h/mL and 1943.92 ng·h/mL and 3038.12 ng·h/mL and 3010.01 ng·h/mL and 3496.61 ng·h/mL and 2164.09 ng·h/mL and 3287.23 ng·h/mL
AUC_%Extrap (individual subjects): 26.53% and 31.17% and 25.44% and 24.30% and 21.00% and 18.36% and 14.52% and 18.22% and 17.33% and 21.13% and 26.67% and 23.20%
CL/F (individual subjects): 4.91 L/h and 6.77 L/h and 11.01 L/h and 7.12 L/h and 15.12 L/h and 5.91 L/h and 10.29 L/h and 6.58 L/h and 6.64 L/h and 5.72 L/h and 9.24 L/h and 6.08 L/h
Cmax (individual subjects): 30.409 ng/mL and 21.586 ng/mL and 13.021 ng/mL and 20.877 ng/mL and 9.944 ng/mL and 32.652 ng/mL and 20.426 ng/mL and 33.588 ng/mL and 31.705 ng/mL and 26.988 ng/mL and 14.549 ng/mL and 26.492 ng/mL and 30.4 ng/mL and 21.6 ng/mL and 13.0 ng/mL and 20.9 ng/mL and 9.9 ng/mL and 32.7 ng/mL and 20.4 ng/mL and 33.6 ng/mL and 31.7 ng/mL and 27.0 ng/mL and 14.5 ng/mL and 26.5 ng/mL
MRT0-t (individual subjects): 95.36 h and 94.95 h and 95.71 h and 95.46 h and 92.09 h and 90.98 h and 84.46 h and 87.34 h and 83.83 h and 94.91 h and 93.53 h and 94.49 h
MRT0-∞ (individual subjects): 196.38 h and 225.05 h and 182.53 h and 178.20 h and 165.60 h and 151.62 h and 129.66 h and 149.99 h and 143.87 h and 168.40 h and 198.32 h and 178.88 h
Tmax (individual subjects): 6 h and 4 h and 5 h and 3 h
Vz/F (individual subjects): 1042.08 L and 1684.38 L and 1909.99 L and 1224.96 L and 2694.46 L and 929.93 L and 1355.33 L and 1100.32 L and 1104.05 L and 1021.99 L and 2056.61 L and 1181.94 L
t1/2 (individual subjects): 147.04 h and 172.37 h and 120.20 h and 119.29 h and 123.51 h and 109.15 h and 91.31 h and 115.86 h and 115.17 h and 123.85 h and 154.25 h and 134.65 h
λz (individual subjects): 0.005 h⁻¹ and 0.004 h⁻¹ and 0.006 h⁻¹ and 0.008 h⁻¹
AUC0-∞ [1]: 2,844.7 (624.5) (N = 4) h*ng/mL
CL/F [1]: 7.4 (2.0) (N = 4) L/h
Vz/F [1]: 1,122.4 (175.2) (N = 4) L
t1/2 [1]: 107.9 (11.4) (N = 4) h
λz [1]: 0.007 (0.0008) (N = 4) h-1
AUC_%Extrap (mean, all 12 subjects): 22.3 (4.8) % and 22.324%
CL/F (mean, all 12 subjects): 8.0 (2.9) L/h and 7.951 L/h
Cmax (mean, all 12 subjects): 23.5 (8.1) ng/mL and 23.5198 ng/mL
MRT0-t (mean, all 12 subjects): 91.9 (4.4) h and 91.926 h
MRT0-∞ (mean, all 12 subjects): 172.4 (26.7) h and 172.374 h
Tmax (mean, all 12 subjects): 4.5 h
t1/2 (mean, all 12 subjects): 127.2 (21.8) h and 127.221 h
λz (mean, all 12 subjects): 0.006 (0.0009) h-1 and 0.0056 h-1
Tmax (median (range), N=12): 4.5 (3.0–6.0) h
AUC0-t (median, N=12): 2305.872 ng·h/mL
AUC0-∞ (median, N=12): 2981.370 ng·h/mL
AUC_%Extrap (median, N=12): 22.166%
CL/F (median, N=12): 6.709 L/h
Cmax (median, N=12): 24.0390 ng/mL
MRT0-t (median, N=12): 94.010 h
MRT0-∞ (median, N=12): 173.300 h
Vz/F (median, N=12): 1203.452 L
t1/2 (median, N=12): 121.852 h
λz (median, N=12): 0.0057 h⁻¹
half-life (Period 2, GP681 + itraconazole, statistic not stated (discussion)): 107.4 h
increase of AUC0-t in Period 2 compared to Period 1 (arithmetic means): 107%
increase of AUC0-∞ in Period 2 compared to Period 1 (arithmetic means): 153%
increase of Cmax in Period 2 compared to Period 1 (arithmetic means): 22%
AUC0-t Ratio Period 2/Period 1 (individual subjects): 7.8 and 2.8 and 1.7 and 2.2 and 1.8 and 1.4 and 1.9 and 2.0 and 2.1
Cmax Ratio Period 2/Period 1 (individual subjects): 8.0 and 1.7 and 0.8 and 1.8 and 1.3 and 1.6 and 1.1 and 0.6
